Experimental data reported in ChEMBL document CHEMBL1201862, “PubChem BioAssay data set” (2004).
Active and inactive are the calls of the source.

Assays:
[1] = molecular target: T1, Mannose-6-phosphate isomerase (Homo sapiens, UniProt P34949); test: human PMI inhibitors, high substrate, primary screen, biochemical, fluorescence intensity, high mannose 6-phosphate (AID 1220)
T1 sequence (P34949 whole entry): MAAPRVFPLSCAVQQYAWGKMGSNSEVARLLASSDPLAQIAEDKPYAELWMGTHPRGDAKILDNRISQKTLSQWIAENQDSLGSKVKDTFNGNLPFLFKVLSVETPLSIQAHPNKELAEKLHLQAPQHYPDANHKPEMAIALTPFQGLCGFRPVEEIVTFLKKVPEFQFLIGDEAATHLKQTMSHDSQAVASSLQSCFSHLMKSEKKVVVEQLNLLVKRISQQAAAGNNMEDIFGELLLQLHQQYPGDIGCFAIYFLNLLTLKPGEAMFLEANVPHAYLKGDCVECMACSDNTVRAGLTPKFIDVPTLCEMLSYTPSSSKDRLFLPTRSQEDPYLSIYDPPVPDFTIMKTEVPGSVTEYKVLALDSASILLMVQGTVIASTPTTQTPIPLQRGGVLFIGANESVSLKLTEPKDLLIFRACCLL

[2] = molecular target: Heat shock protein HSP 90-alpha (Homo sapiens, UniProt P07900); format: functional, organism-based
[3] = P. falciparum 3D7-ScDHODH growth inhibitors, dose response, SYBR Green, dry powder samples (AID 1159570); format: functional, cell-based;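 further: parasite growth measured after 72 hours of compound exposure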
[4] = P. falciparum Dd2 growth inhibitors, dose response, SYBR Green, dry powder samples (AID 1159566); format: functional, cell-based;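 further: potency for growth inhibition with lower SYBR green DNA signal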
[5] = P. falciparum ATP4 D1247Y mutant growth inhibitors, dose response, NITD609-resistant line, SYBR Green, dry powder (AID 1159571); format: functional, cell-based;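 further: parasites synchronized at ring stage by sorbitol before testing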
[6] = cytotoxicity in HEK-293T cells, dose response, cytotoxicity control for TCR NF-kB inhibitor project, luminescence, T-cell screen hits (AID 489026); format: functional, cell-based;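 further: cells exposed to compound about 14 hours before the viability readout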
[7] = HEp-2 cell cytotoxicity, dose response, cytotoxicity control for RSV inhibitor project, HTS (AID 2410); format: functional; settings: human respiratory syncytial virus
[8] = microbe, parasite or virus in culture; format: functional; settings: Mycobacterium tuberculosis
[9] = cells
[10] = inhibitors of intracellular T. cruzi replication, confirmation, NIH3T3 host cells, beta-gal luminescence (AID 2044); format: functional, cell-based;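 further: intracellular parasites grown in NIH/3T3 mouse fibroblasts as host cells; luminescent beta-galactosidase reporter signal from transgenic T. cruzi replicating inside host cells; inhibitors lower the luminescence signal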
[11] = cytotoxicity toward NIH3T3 fibroblasts, dose response, counter-screen, cell-based, ATP luminescence, mouse fibroblasts (AID 2010); format: functional;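 further: cells exposed to compound for about 90 hours before reading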
[12] = molecular target: Induced myeloid leukemia cell differentiation protein Mcl-1 (Homo sapiens, UniProt Q07820); format: functional
Induced myeloid leukemia cell differentiation protein Mcl-1, sequence (Q07820 whole entry): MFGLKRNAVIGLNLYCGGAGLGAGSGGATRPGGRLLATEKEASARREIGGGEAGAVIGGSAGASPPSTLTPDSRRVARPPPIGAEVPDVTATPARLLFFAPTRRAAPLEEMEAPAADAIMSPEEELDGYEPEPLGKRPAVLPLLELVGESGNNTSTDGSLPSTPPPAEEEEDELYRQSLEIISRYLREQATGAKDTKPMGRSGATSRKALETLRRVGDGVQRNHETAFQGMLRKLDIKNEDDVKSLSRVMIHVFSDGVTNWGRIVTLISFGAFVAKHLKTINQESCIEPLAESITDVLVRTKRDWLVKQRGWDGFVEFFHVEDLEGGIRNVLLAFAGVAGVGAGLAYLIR

[13] = THP-1 cell cytotoxicity, dose response, cytotoxicity control for non-replicating M. tuberculosis project (AID 489025); format: functional
[14] = Vero E6 cell cytotoxicity, dose response, cytotoxicity control for non-replicating M. tuberculosis project, secondary assay (AID 492998); format: functional, VeroE6; settings: Vero C1008
[15] = cells; format: functional
[16] = test system: Vero; test: cells; format: functional; settings: Chlorocebus sabaeus
[17] = NIH-3T3 fibroblast cytotoxicity, dose response, cytotoxicity control, cell-based, fluorescence, Alamar Blue, secondary assay (AID 2327); format: functional;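 further: NIH-3T3 mouse fibroblasts cultured with fluconazole at 8 µg/mL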
[18] = C. albicans growth with fluconazole, confirmation, fluorescence, retest (AID 2467); format: functional, cell-based
[19] = growth suppression of PTEN-null colon cells, dose response, cell-based, HCT116 PTEN knockout (AID 1047); format: functional;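 further: HCT116 colon tumor cells with PTEN knocked out; cells exposed to compound for 60 hours before readout; potency for loss of cell viability measured by luminescence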
[20] = growth suppression of beta-catenin-knockout colon cells, dose response, cell-based, HCT116, human colon tumor (AID 1045); format: functional;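 further: HCT116 colon tumor cells with beta catenin knocked out; cells exposed to compound for 60 hours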
[21] = molecular target: T2, Microphthalmia-associated transcription factor (Homo sapiens, UniProt O75030); test: TRPM1 promoter luciferase signal decrease, dose response, MITF inhibitor project, cell-based, SK-MEL-5, cherry-picked, set 3 (AID 493073); format: functional
T2 sequence (O75030 whole entry): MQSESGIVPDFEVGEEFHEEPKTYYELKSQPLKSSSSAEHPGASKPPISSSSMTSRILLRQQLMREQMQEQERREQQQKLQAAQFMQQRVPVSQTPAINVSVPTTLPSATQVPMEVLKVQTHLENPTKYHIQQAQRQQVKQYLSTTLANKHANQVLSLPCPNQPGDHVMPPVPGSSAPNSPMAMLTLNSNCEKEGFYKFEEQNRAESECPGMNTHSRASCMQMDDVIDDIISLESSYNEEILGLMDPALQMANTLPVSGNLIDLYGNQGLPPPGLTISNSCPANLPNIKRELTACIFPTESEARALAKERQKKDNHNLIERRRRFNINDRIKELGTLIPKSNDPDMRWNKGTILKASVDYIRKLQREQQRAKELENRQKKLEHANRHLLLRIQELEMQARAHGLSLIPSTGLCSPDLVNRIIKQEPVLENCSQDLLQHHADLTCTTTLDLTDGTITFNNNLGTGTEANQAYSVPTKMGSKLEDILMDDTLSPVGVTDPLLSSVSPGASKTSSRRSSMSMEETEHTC

[22] = test system: INS1; test: beta cell apoptosis inhibitors, cytokine rescue, dose response, luminescence, retest (AID 449756); format: functional, cell-based; settings: Rattus norvegicus;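 further: cell death triggered by IL-1 beta plus TNF-alpha plus IFN-gamma mixture; protective hits raise ATP signal compared with cytokine alone wells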
[23] = P. falciparum Dd2 growth inhibitors, dose response, SYBR Green, cherry-picked samples (AID 1159567); format: functional, cell-based
[24] = molecular target: Luciferin 4-monooxygenase (Photinus pyralis, UniProt P08659); test: firefly luciferase enzyme inhibitors, dose response, biochemical, luminescence (AID 1891)
Luciferin 4-monooxygenase, sequence (P08659 whole entry): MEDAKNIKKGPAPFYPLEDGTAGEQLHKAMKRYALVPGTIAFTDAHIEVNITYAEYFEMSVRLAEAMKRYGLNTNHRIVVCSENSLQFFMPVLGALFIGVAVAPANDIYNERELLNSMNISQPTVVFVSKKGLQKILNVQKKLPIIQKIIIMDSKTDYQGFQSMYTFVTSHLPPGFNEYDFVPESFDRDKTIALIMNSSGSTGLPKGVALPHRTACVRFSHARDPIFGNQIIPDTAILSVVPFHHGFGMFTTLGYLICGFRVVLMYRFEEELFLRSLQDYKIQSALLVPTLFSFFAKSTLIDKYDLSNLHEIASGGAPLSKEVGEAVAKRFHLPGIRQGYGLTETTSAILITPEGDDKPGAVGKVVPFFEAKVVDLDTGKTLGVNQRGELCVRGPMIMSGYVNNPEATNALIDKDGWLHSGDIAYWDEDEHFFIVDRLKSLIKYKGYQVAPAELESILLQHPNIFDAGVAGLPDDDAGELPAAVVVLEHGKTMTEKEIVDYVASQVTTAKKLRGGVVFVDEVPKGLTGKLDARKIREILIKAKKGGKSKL

[25] = Luminescence Cell-Based Dose Confirmation HTS to Identify Inhibitors of Platelet Dense Granule Release. [Related pubchem assays: 1663 (Primary HTS), 1678 (Summary of Project)]; format: functional
[26] = molecular target: Genome polyprotein (dengue virus type 2, UniProt P29990); test: Dengue-2 NS5 methyltransferase inhibitors, primary screen, biochemical, confirmation dose response (AID 588689); format: functional
Genome polyprotein, sequence (P29990 2492-3391 limits assumed): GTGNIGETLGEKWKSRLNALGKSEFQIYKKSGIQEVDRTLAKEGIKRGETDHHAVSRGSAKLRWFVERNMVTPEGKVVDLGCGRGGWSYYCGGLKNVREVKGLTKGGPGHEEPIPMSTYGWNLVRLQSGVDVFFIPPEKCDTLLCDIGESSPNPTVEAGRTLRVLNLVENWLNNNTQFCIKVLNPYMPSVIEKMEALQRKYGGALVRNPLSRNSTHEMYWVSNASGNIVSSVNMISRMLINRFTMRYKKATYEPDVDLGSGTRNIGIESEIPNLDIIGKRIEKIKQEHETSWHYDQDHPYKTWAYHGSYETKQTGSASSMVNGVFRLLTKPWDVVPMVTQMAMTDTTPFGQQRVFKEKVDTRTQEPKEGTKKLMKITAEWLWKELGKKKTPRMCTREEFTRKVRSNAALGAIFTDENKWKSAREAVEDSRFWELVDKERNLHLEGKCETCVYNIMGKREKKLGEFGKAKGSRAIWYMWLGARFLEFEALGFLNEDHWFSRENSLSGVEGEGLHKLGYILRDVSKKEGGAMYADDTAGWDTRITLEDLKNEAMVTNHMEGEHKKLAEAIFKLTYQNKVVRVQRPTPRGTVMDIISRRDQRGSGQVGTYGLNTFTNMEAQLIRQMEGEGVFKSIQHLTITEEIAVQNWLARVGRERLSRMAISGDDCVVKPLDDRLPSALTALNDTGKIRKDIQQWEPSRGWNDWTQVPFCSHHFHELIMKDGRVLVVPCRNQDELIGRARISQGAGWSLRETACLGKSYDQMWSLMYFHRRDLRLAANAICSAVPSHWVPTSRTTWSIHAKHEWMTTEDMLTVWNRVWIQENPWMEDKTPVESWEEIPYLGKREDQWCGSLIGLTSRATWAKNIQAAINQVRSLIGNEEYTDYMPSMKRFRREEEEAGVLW

[27] = molecular target: T3, High affinity choline transporter 1 (Homo sapiens, UniProt Q9GZV3); test: CHT inhibitors, dose response, cell-based, 5-point CRC, membrane potential dye (AID 504840); format: functional
T3 sequence (Q9GZV3 whole entry): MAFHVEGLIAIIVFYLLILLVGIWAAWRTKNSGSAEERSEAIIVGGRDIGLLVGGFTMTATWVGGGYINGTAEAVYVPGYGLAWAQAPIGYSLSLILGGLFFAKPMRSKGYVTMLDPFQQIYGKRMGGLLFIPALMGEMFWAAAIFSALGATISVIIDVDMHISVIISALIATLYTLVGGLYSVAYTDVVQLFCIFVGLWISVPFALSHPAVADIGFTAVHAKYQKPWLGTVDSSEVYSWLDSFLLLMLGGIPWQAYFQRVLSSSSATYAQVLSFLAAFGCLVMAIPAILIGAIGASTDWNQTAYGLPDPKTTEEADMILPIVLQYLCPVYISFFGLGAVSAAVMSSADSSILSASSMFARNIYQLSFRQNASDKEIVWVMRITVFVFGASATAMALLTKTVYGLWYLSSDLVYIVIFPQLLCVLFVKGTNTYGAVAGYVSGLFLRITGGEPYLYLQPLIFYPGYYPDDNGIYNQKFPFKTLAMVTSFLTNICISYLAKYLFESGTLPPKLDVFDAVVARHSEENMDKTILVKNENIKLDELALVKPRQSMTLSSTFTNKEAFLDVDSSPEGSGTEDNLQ

[28] = molecular target: T4, Polyadenylate-binding protein 1 (Homo sapiens, UniProt P11940); test: PABP1 MLLE–PAM2 interaction inhibitors, dose response, miRNA deadenylation inhibitor project, biochemical, fluorescence polarization, Cy5-PAM2 peptide, secondary (AID 602260); format: functional; settings: read-out: IC50_Mean
T4 sequence (P11940 whole entry): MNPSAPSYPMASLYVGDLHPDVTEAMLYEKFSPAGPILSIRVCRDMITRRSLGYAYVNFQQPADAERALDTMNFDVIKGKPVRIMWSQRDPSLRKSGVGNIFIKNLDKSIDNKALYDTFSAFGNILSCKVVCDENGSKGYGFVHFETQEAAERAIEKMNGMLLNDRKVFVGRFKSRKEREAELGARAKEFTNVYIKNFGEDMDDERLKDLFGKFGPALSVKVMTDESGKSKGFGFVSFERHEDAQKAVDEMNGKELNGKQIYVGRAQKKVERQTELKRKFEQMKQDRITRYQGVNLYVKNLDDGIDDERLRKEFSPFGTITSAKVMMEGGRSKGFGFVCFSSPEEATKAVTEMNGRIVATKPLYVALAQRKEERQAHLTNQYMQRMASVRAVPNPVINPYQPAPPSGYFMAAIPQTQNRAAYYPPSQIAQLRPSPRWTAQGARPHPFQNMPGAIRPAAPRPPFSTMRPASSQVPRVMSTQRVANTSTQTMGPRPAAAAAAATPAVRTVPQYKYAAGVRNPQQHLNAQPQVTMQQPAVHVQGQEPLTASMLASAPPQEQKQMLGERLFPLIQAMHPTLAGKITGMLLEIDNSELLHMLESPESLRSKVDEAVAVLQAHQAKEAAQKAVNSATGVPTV

[29] = molecular target: T4, Polyadenylate-binding protein 1; test: PABP1 MLLE–PAM2 binding inhibitor potency, dose response, biochemical, fluorescence polarization, FITC-PAM2 peptide (AID 602259); format: functional; settings: read-out: IC50_Mean
[30] = molecular target: Large T antigen (Simian virus 40, UniProt P03070); format: functional, Betapolyomavirus macacae;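 further: Confirmatory-stage PubChem screen for compounds that inhibit SV40 T antigen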
Large T antigen, sequence (P03070 whole entry): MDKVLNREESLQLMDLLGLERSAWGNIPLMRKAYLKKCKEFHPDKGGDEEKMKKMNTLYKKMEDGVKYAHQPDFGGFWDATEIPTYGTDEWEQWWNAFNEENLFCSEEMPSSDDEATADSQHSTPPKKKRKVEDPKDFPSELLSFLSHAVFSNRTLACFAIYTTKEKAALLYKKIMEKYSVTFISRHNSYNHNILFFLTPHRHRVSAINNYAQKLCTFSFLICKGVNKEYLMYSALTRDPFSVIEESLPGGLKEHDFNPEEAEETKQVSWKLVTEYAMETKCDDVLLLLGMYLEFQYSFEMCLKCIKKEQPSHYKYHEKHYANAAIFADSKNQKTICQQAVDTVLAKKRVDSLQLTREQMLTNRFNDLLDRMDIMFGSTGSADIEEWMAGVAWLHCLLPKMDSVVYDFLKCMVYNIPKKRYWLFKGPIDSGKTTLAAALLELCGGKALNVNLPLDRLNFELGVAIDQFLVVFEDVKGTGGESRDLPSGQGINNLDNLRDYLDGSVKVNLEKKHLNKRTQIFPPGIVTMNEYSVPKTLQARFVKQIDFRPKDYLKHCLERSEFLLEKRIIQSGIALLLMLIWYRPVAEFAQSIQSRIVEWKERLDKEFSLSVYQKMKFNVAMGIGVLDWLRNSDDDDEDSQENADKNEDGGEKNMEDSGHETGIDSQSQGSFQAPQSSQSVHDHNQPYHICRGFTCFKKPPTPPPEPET

COc1ccc(N(C)C(=S)Nc2ccc3nc(C)c(C)nc3c2)cc1
IC50 [1]: > 50 µM (not active)

COc1ccccc1C(=O)NNC(=S)NC(=O)c1ccco1
AC50 [2]: 1.42 µM (active)

C[C@@H]1CN([C@@H](C)CO)C(=O)c2cccc(NC(=O)c3nc4ccccc4s3)c2O[C@H]1CN(C)C(=O)Nc1cccc2ccccc12
AC50 [3]: 0.595 µM (active)
AC50 [4]: 0.766 µM (active)
AC50 [5]: 0.802 µM (active)

COc1ccc(C(=O)N(C)Cc2cnn(Cc3ccccc3)c2)cc1S(=O)(=O)N1CCOCC1
IC50 [6]: > 80 µM (inactive)

Nc1ccc(-c2nc3cc(-c4nc5ccccc5o4)ccc3[nH]2)cc1
CC50 [7]: 48.2 µM (active)
CC50 [8]: > 40 µM (active)
IC50 [9]: 33.4 µM (active)

Cn1c2ccccc2c(=O)c2c(=O)n(Cc3ccco3)c(-c3ccc(Cl)cc3Cl)nc21
CC50 [7]: 15.5 µM (active)
EC50 [10]: 0.978 µM (active)
EC50 [11]: > 30 µM (not active)
IC50 [9]: 10.2 µM (active)

Cc1ccc2c(c1)COc1c3ccc(C(=O)N[C@@H](C)CO)cc3nn1-2
CC50 [7]: > 50 µM (active)
IC50 [9]: 41.5 µM (active)

CC(/C=N\Nc1n[nH]c2c3cccc(C)c3nc-2n1)=C\c1ccco1
IC50 [12]: 3.46 µM (active)

O=C(Nc1ccccn1)c1ccc([N+](=O)[O-])o1
CC50 [13]: 26.3 µM (active)
CC50 [14]: 13.4 µM (active)
IC50 [15]: 13.6 µM (active)
CC50 [16]: > 25 µM (active)

Cc1c(NS(=O)(=O)c2cc(NC(=O)CCN3CCCC(C)C3)ccc2Cl)c(=O)n(-c2ccccc2)n1C (stereo unspecified)
IC50 [12]: 4.67 µM (not active)

CC1(C)CC(=O)C(=CNc2cccc(/N=C/C3=C(O)CC(C)(C)CC3=O)n2)C(=O)C1
IC50 [12]: 1.31 µM (not active)

c1ccc(Cn2nnc3c(N4CCCCCC4)ncnc32)cc1
CC50 [7]: 17 µM (active)
IC50 [9]: 49.5 µM (active)

CCOC(=O)CN1C(=O)N[C@@H](c2cccc(F)c2)C(C(C)=O)=C1C
CC50 [7]: 44.1 µM (active)
IC50 [9]: 12.8 µM (active)

Cc1ccc(NC(=S)Nc2cccc3cnccc23)cc1
IC50 [1]: > 50 µM (not active)

O=C(N/N=C\c1ccc([N+](=O)[O-])s1)c1cncc(Br)c1
EC50 [17]: 29.4 µM (active)
EC50 [18]: 4.15 µM (active)
EC50 [19]: 1.09 µM (active)
EC50 [20]: 0.452 µM (active)
CC50 [13]: 5.8 µM (active)
CC50 [14]: 4.83 µM (active)
AC50 [21]: 4.34 µM (active)
IC50 [15]: 12.6 µM (active)
AC50 [22]: 7.04 µM (active)

COc1ccc(-c2ccc([C@H]3[C@H](C#N)N(C(=O)c4cccc(F)c4)[C@H]3CO)cc2)cc1
AC50 [3]: 2.24 µM (active)
AC50 [23]: 2.71 µM (active)
AC50 [4]: 1.85 µM (active)
AC50 [5]: 2 µM (active)

COc1cc2c(cc1OC)C1=C(C#N)CN(CC(=O)O)CN1CC2
EC50 [24]: > 112 µM (not active)
EC50 [25]: > 112 µM (not active)
IC50 [1]: 34.1 µM (active)

NC(=O)COc1ccc2c3c(c(=O)oc2c1)CCCCC3
EC50 [17]: > 160 µM (inconclusive)
EC50 [18]: > 38 µM (not active)
IC50 [9]: 42.2 µM (active)

CCCOc1ccc(N2C(=O)CC(N3CCC(C(=O)OCC)CC3)C2=O)cc1 (stereo unspecified)
AC50 [2]: 3.1 µM (active)

O=C(N/N=C/c1ccc(O)c(O)c1)/C(O)=C\C1=NC2(CCCC2)Cc2ccccc21
IC50 [12]: 3.56 µM (active)

O=C1CCC/C(=N/Nc2ccc(Cl)cc2)C1
EC50 [17]: > 150 µM (inactive)
CC50 [13]: > 40 µM (active)
IC50 [15]: 16.9 µM (active)
IC50 [26]: 93.3 µM (active)

COc1cc(/C=C/c2nc3ccccc3c(=O)n2-c2cccc(O)c2)ccc1O
IC50 [12]: 8.49 µM (active)

Cc1cccc(-c2csc(N)c2C(=O)OC(C)C)c1
IC50 [1]: > 50 µM (not active)

C[C@@]12C(=O)Nc3ccc(Cl)cc3C(=O)N1[C@H]1c3ccccc3OC[C@@H]1[C@@H]2c1ccccc1
AC50 [2]: 0.611 µM (active)

CCN(CC)C1=N/C(=C\c2ccc(OC)cc2)C(=O)N1c1ccccc1
CC50 [7]: 9.86 µM (active)
IC50 [9]: 4.49 µM (active)

Cc1ccc(C(=O)/C=C/C(=O)O)cc1
IC50 [27]: 10.5 µM (active)
IC50 [26]: > 100 µM (active)
IC50 [28]: > 66 µM (inactive)
IC50 [29]: > 66 µM (inactive)

C=CCN1C(=O)/C(=C/c2cc(C)n(-c3cccnc3)c2C)C(=O)NC1=S
IC50 [30]: 66.7 µM (active)
EC50 [19]: 89.5 µM (active)
EC50 [20]: 53.3 µM (active)
IC50 [1]: > 50 µM (not active)
AC50 [21]: 16.8 µM (active)
